Reference: patent US20180282279A1, “Pantothenamide Analogues” (Radboud Universitair Medisch Centrum, priority 2014, published 2018)
Converted amounts (≈) assume the structure as drawn. Like-named read-outs stand apart in the source and are kept apart here.

Key:
[1] = tested on: Staphylococcus epidermidis; assay: Bacterial growth assay and MIC determination, S. epidermidis; format: cell-based
Experimental: (§1) Strains of Escherichia coli, Staphylococcus aureus and Staphylococcus epidermidis, were grown overnight in 1% Bacto tryptone medium (BD, Sparks, Md.). Streptococcus pyogenes was grown overnight in Bacto Todd Hewitt Broth medium (BD, Sparks, Md.). Cultures were then diluted 1:1,000 in fresh assay medium supplemented with or without 20% fetal bovine serum (FBS; HyClone, Celbio, Logan, Utah) and added to 96-well sterile enzyme-linked immunosorbent assay (ELISA) plates (100 μl per well). The compounds to be tested were diluted in the medium without serum and added to the bacteria (100 μl per well). Plates were incubated at 37° C., and bacterial growth was monitored over time by reading the optical density at 490 nm using a microplate reader (model 450; Bio-Rad Laboratories Inc., Hercules, Calif.). Streptococcus pneumoniae strains were grown to mid-log phase (OD620 of 0.3) and stored in 15% glycerol at […] till further use. Minimal inhibitory concentration (MIC) of antibiotics was determined according to standard procedures. Bacteria were diluted 10-fold in Mueller-Hinton medium (BD, Sparks, Md.) and added to 96-well sterile ELISA plates (150 μl per well). The compounds to be tested were diluted in the medium without serum and added to the bacteria (150 μl per well). Plates were incubated overnight at 37° C. in 5% CO2. The MIC was defined as the lowest concentration of compound at which no growth was visible with the naked eye.

[2] = tested on: P. falciparum gametocytes; assay: Gametocyte female gametogenesis capacity assay (Pfs25 AlphaLISA); format: cell-based; conditions: Plasmodium falciparum; 72 hours incubation, Table 3; read-out: Gametocyte gametogenesis capacity (Pfs25) IC50
Experimental: To monitor compound effects on the ability of a gametocyte to form a female gamete, day 11 (stage IV) gametocytes were seeded at a density of 4×10^5 gametocytes per well in a V-bottom plate in 50 μl culture medium. 50 μl of diluted compound was added to the gametocytes (0.1% DMSO final concentration) and plates were incubated for 72 hours at 37° C., 98% humidity, 93% N2, 4% CO2 and 3% O2. Subsequently, gametogenesis was induced by adding xanthurenic acid to a final concentration of 40 μM and plates were incubated for 16 hours at 20° C. Gametes were detected in a homogeneous proximity immunoassay on basis of Pfs25 expression by use of AlphaLISA technology (Perkin Elmer). All steps were performed at 20° C. Gametes were washed twice with PBS, lysed for 15 min in 10 μl 10 mM Tris pH 8.0/1% laurylsarcosyl/1 mM phenylmethanesulfonyl fluoride and combined with 10 μl 5 nM biotinylated mouse anti-Pfs25 monoclonal antibody 32F6244 in a white 384 well optiplate (Perkin Elmer). After 1 hour incubation 15 μl of 33 μg/ml acceptorbeads coated with mouse anti-Pfs25 monoclonal antibody 32F81 were added. After 1 hour incubation, 15 μl 33 μg/ml Streptavidin-conjugated donorbeads were added. Finally, after 1 hour incubation luminescence signals were monitored at the 615 nm emission wavelength following excitation at 680 nm using a fluorometer (Biotek Synergy 2). All compounds were tested in duplicate (24 hr) or triplicate (1 and 72 hr). Controls included MIN (0.1 μM epoxomicin) and MAX (0.1% DMSO). Data were analyzed by logistic regression using the formula: Y=Bottom+(Top−Bottom)/(1+10̂((Log IC50−X)*HillSlope)) and a least squares method to find the best fit.

[3] = tested on: Plasmodium falciparum NF54 parasites; assay: P. falciparum asexual blood stage replication assay (SYBR Green); format: cell-based; conditions: NF54, 10% human serum, 72 incubation
Experimental: Compounds were tested on their ability to inhibit replication of the human malaria parasite Plasmodium falciparum. To this end, Plasmodium falciparum NF54 parasites were cultured in RPMI1640 medium supplemented with 367 μM hypoxanthine, 25 mM HEPES, 25 mM sodiumbicarbonate and 10% human type A serum in an automated large-scale culture system as described before (Transactions of the Royal Society of Tropical Medicine and Hygiene, 1982. 76: p. 812-818). Compounds were diluted in DMSO and subsequently in culture medium to reach a DMSO concentration of 0.2%. 50 μl of diluted compound was transferred to a black 96 well plate. A culture of P. falciparum strain NF54 malaria parasites was diluted to a parasitaemia of 0.5% and a hematocrit of 3%. 50 μl of this diluted culture was added to each well in the 96 well plate._The outermost wells of the plate were filled with sterile water to prevent evaporation. The established antimalarial dihydroartemisinin (DHA) in DMSO acted as a positive control (MIN signal), and 0.1% DMSO acted as a negative control (MAX signal). The plates were incubated for 72 at 37° C., 3% 02, 5% CO2, 93% N2. Changes in parasite replication relative to the controls were monitored using the DNA-marker SYBR Green as described previously (Antimicrob Agents Chemother 48:1803-6). Data were analyzed by logistic regression using the formula: Y=Bottom+(Top-Bottom)/(1+10̂((Log IC50−X)*HillSlope)) and a least squares method to find the best fit.
Using similar methods, IC50 values were determined for a variety of inverted pantothenamides, as listed in table 1 (see section: ‘Detailed description of the invention’)

[4] = tested on: P. falciparum gametocytes; assay: microbe, parasite or virus in culture; format: cell-based, Plasmodium falciparum; conditions: Plasmodium falciparum; 72 hour incubation; read-out: Gametocyte viability (pLDH) IC50
Experimental: Compounds were tested for their ability to affect the viability of gametocytes, the sexually committed blood stages of P. falciparum that underlie transmission to the mosquito vector. To this end, two different assays were performed. The first assay monitored pLDH activity as a measure of viability of gametocytes (J Antimicrob Chemother. 2013 September; 68(9):2048-58). The second assay monitored the ability of gametocytes to form a female gamete by detection of the gamete-specific marker Pfs25. Plasmodium falciparum NF54 parasites were cultured in RPMI1640 medium supplemented with 367 μM hypoxanthine, 25 mM HEPES, 25 mM sodiumbicarbonate and 10% human type A serum in an automated large-scale culture system as described before (Transactions of the Royal Society of Tropical Medicine and Hygiene, 1982. 76: p. 812-818). Cultures were treated with 50 mM N-acetyl-D-glucosamine from day 4 till day 9 to kill asexual parasites. On day 11 gametocytes were isolated by discontinuous 63% Percoll gradient centrifugation. Compounds were diluted in DMSO and subsequently in culture medium to reach a DMSO concentration of 0.2%. To measure the effect of compounds of pLDH activity, gametocytes were seeded at a density of 3.5×10^4 gametocytes per well in a black 384 well plate in 30 μl of culture medium, and 30 μl of diluted compound was added. Following a 72 hour incubation at 37° C., 98% humidity, 93% N2, 4% CO2 and 3% O2, gametocyte viability was measured by a modified plasmodium lactate dehydrogenase assay by using resazurin as a substrate as previously described (Nature, 2013. 504(7479): p. 248-53). Assays were performed in quadruplicate (two different plates with two different gametocyte batches) and all plates included controls MIN (1 μM DHA), MAX (0.1% DMSO) and a serial dilution of reference compound dihydroartemisinin (DHA).

Streptococcus pneumoniae = assay: MIC determination, S. pneumoniae; format: cell-based; conditions: Streptococcus pneumoniae; S. pneumoniae, serum −; read-out: MIC
Experimental: Streptococcus pneumoniae strains were grown to mid-log phase (OD620 of 0.3) and stored in 15% glycerol at […] till further use. Minimal inhibitory concentration (MIC) of antibiotics was determined according to standard procedures. Bacteria were diluted 10-fold in Mueller-Hinton medium (BD, Sparks, Md.) and added to 96-well sterile ELISA plates (150 μl per well). The compounds to be tested were diluted in the medium without serum and added to the bacteria (150 μl per well). Plates were incubated overnight at 37° C. in 5% CO2. The MIC was defined as the lowest concentration of compound at which no growth was visible with the naked eye.

Escherichia coli = assay: Bacterial growth assay and MIC determination, E. coli; format: cell-based; conditions: serum −
Experimental: as §1

Staphylococcus aureus = assay: Bacterial growth assay and MIC determination, S. aureus; format: cell-based; conditions: S. aureus
Experimental: as §1

[5] = Pharmacokinetic study in rats; format: in vivo; conditions: 50 mg/kg
Experimental: To address the question if increased stability would also lead to improved bioavailability in vivo, a pharmacokinetic study was performed. Briefly, the pantothenamides N5-Pan (an antibacterial compound) and CXP18.3-002 (an antimalarial compound), and their corresponding inverted amides CXP18.6-013 and CXP18.6-006 were administered to rats at 50 mg/kg dissolved in saline. Blood samples were collected from 3 rats before the experiment and at 0.25, 0.5, 1, 2, 4, 6, 8, 12 and 24 h. The concentrations of the compounds were analyzed by LC-MS/MS (AB Sciex API-4000 system). Data were analyzed by the Non-compartmental analysis tool of Phoenix WinNonlin (Version 6.3).

Streptococcus pyogenes = assay: Bacterial growth assay and MIC determination, S. pyogenes; format: cell-based; conditions: S. pyogenes, serum −
Experimental: as §1

[6] = tested on: S. aureus (SA), S. epidermidis (SE), S. pyogenes (SP), S. pneumoniae (SPn); assay: MIC for most sensitive bacterial species (panel); format: cell-based; conditions: Table 1; no species named; tested for SA, SE, SP and SPn; read-out: MIC (μg/ml) for most sensitive bacterial species
Experimental: as §1

[7] = Staphylococcus epidermidis, S. epidermidis, serum −, read-out: MIC
[8] = Escherichia coli, read-out: MIC
[9] = Staphylococcus aureus, serum −, read-out: MIC

Which MIC ([1]; Staphylococcus epidermidis, Table 1, most sensitive species S. epidermidis (SE), read-out: MIC (μg/ml) for most sensitive bacterial species) does the source give for `Cc1ccc(CCC(=O)NCCNC(=O)[C@H](O)C(C)(C)CO)c(F)c1` [CXP18.6-064] here?
Its MIC is 2 µg/mL (≈ 5.64 µM).

And the IC50 [2]?
The IC50 was 17 nM.

What about the IC50 [3] of the same compound?
Its IC50 is 0.042 µM.

And the IC50 [4]?
Its IC50 is 42 nM.

With `CCCCCNC(=O)CCNC(=O)[C@H](O)C(C)(C)CO` [Compound N5-Pan, N-pentylpantothenamide, reference compound] as the compound, how does the MIC [1, 7] read?
The MIC was 32 µg/mL (≈ 111 µM).

What about the MIC (Streptococcus pneumoniae) of the same compound?
The MIC was 0.25 µg/mL (≈ 0.867 µM).

What about the MIC (Escherichia coli; [8]) of the same compound?
The MIC was 64 µg/mL (≈ 222 µM).

What about the MIC (Staphylococcus aureus; [9]) of the same compound?
Its MIC is 8 µg/mL (≈ 27.7 µM).

And the “detection in blood following oral administration” value [5]?
Its value is “could not or hardly be detected”.

What does the source list for `CCCCCCCNC(=O)CCNC(=O)[C@H](O)C(C)(C)CO` [Compound N7-Pan, N-heptylpantothenamide, reference compound]?
MIC [1, 7]: 0.5 µg/mL (≈ 1.58 µM); MIC (Streptococcus pneumoniae): 2 µg/mL (≈ 6.32 µM); MIC (Escherichia coli; [8]): 128 µg/mL (≈ 404 µM); MIC (Streptococcus pyogenes; Streptococcus pyogenes, read-out: MIC): 2 µg/mL (≈ 6.32 µM); MIC (Staphylococcus aureus; serum + (10% serum)): >256 µg/mL; MIC (Staphylococcus aureus; Staphylococcus aureus, serum + (10% serum), read-out: MIC): > 256 µg/mL; MIC (Staphylococcus aureus; [9]): 0.5 µg/mL (≈ 1.58 µM)

For `CCCCCCCCCNC(=O)CCNC(=O)[C@H](O)C(C)(C)CO` [Compound N9-Pan, reference compound], which MIC ([1]; S. epidermidis, serum −) is on record?
The MIC was 0.25 µg/mL (≈ 0.726 µM).

What about the MIC (Escherichia coli) of the same compound?
Its MIC is greater than 256 µg/mL.

And the MIC (Streptococcus pyogenes)?
Its MIC is 16 µg/mL (≈ 46.4 µM).

And the MIC (Staphylococcus aureus; serum + (10% serum))?
The MIC was greater than 256 µg/mL.

And the MIC (Staphylococcus aureus; serum −)?
Its MIC is 0.5 µg/mL (≈ 1.45 µM).

For `C[C@@H](CNC(=O)[C@H](O)C(C)(C)CO)NC(=O)CCc1ccccc1F` [MMV689258], which MIC [6] is on record?
Its MIC is greater than 32 µg/mL.

What about the IC50 [3] of the same compound?
The IC50 was 0.004 µM.

Which results are given for `C[C@H](CNC(=O)[C@H](O)C(C)(C)CO)NC(=O)CCc1ccccc1F` [MMV689260]?
MIC [6]: > 32 µg/mL; IC50 [3]: 0.21 µM
